For the data set, the system named is Rattus norvegicus. Conditions: oral.
The mark [1] stands for this setting: short-term, duration: 28 days, gavage, M, Sprague-Dawley, Clinical Observation: Reddish urine Soft stool DiarrheaSpontaneous locomotion decrease, Incomplete eyelid opening + Functional Observational….
The mark [2] stands for this setting: subchronic, gavage, M, Sprague-Dawley, Deaths + Clinical Observation: Salivation + Body Weight Changes: Body weight gain decrease + Food Consumption: decrease + Urinalysis: Brown ….
[3] abbreviates: subchronic, gavage, M, Sprague-Dawley, Clinical Observation: Salivation + Hematology: NEUT increase + Histopathology: Forestomach-Erosion Forestomach-Cellular infiltration, ….
The mark [4] stands for this setting: short-term, duration: 28 days, gavage, M, Sprague-Dawley, Clinical Observation: Salivation Dark green urinelocomotor activity decrease, Staining around nose and mouth + Functional Observational ….

Where only a bound is given, the exact number is not on record here.

On to `CC1=C(C)C(=O)C(C(CCCCCC(=O)O)c2ccccc2)=C(C)C1=O` (racemic), for which the no-observed-adverse-effect level (NOAEL) (subchronic, duration: 13 weeks, gavage, M/F, Fischer 344, Body Weight Changes: decrease + Food Consumption: decrease + Hematology: RBC decrease, HCT decrease, HGB decrease, MCV increase, MCH …) came to 20 mg/kg-day. `Nc1c(Br)cc(Br)c2c1C(=O)c1ccccc1C2=O` [1-Amino-2,4-dibromoanthraquinone]: under setting [1], the no-observed-adverse-effect level (NOAEL) was under 200 mg/kg-day. Further, the NOEL is under 200 mg/kg-day under setting [1]; under 170 mg/kg-day (subchronic, duration: 13 weeks, diet, F, Fischer 344, Deaths + Clinical Observation: Lethargy Emaciation StaggeredHunched posture + Body Weight Changes: decrease + Food Consumption: decrease + …); under 240 mg/kg-day (subchronic, duration: 13 weeks, diet, M/F, Fischer 344, Deaths + Clinical Observation: Lethargy Emaciation StaggeredHunched posture + Body Weight Changes: decrease + Food Consumption: decrease + …). Take `CCc1ccc(C)nc1` [5-Ethyl-2-methylpyridine]: the no-observed-adverse-effect level (NOAEL) (short-term, duration: 28 days, gavage, M/F, Sprague-Dawley, Body Weight Changes: decrease + Food Consumption: decrease + Blood Chemistry: BUN increase, CRE increase, AST increase + Relative Organ …) is 30 mg/kg-day. Regarding `CCCCCCCC[N+](C)(C)Cc1ccccc1.[Cl-]` [Benzyldimethyloctylammonium chloride], under setting [2], the NOAEL turned out to be 15 mg/kg-day and the NOEL was determined as 15 mg/kg-day.

As for `C1CCC2=NCCCN2CC1` [1,8-Diazabicyclo[5.4.0]undec-7-ene], under setting [3], the no observed adverse effect level (NOAEL) came to 30 mg/kg-day and the NOEL was 10 mg/kg-day. As to `CCCCCCCCC` [Nonane], the NOAEL (subchronic, duration: 90 days, gavage, F, Fischer 344, Absolute Organ Weight: Liver increase, Lung increase, Adrenal increase, Spleen decrease, Ovary decrease + Histopathology: Alimentary tract: …) is 100 mg/kg-day. `CC(CN1c2ccccc2Sc2ccccc21)N(C)C.Cl` (centres undefined) [Promethazine hydrochloride]: the NOEL (subchronic, duration: 13 weeks, gavage, M/F, Fischer 344, Deaths + Clinical Observation: Hunched posture Labored respiration Abnormal respiratory sounds + Body Weight Changes: decrease + Absolute …) was determined as 3.7 mg/kg-day. For the compound `ClCc1ccc(Cl)c(Cl)c1` [Benzene, 1,2-dichloro-4-(chloromethyl)-], the NOEL (short-term, duration: 28 days, gavage, M/F, CD(SD), Deaths + Urinalysis: Volume, urinary cast increase, Epithelial cell increase + Absolute Organ Weight: Kidney increase, Liver increase + …) was under 10 mg/kg-day.

For the compound `NCCCCCCCCCCC(=O)O` [11-Aminoundecanoic acid], the NOEL (subchronic, duration: 13 weeks, diet, M/F, Fischer 344, Deaths + Histopathology: Kidney - mineralization Kidney - transitional-cell hyperplasia Kidney/renal pelvis - hyperplasia) was under 864 mg/kg-day. Take `FC(F)(F)C1(F)C(F)(F)C(F)(F)C(F)(F)C(F)(F)C1(F)C(F)(F)F` (centres undefined) [Perfluoro-1,2-dimethylcyclohexane]: under “subchronic, duration: 42 days, gavage, M, CD(SD), Hematology: HGB decrease, HCT decrease + Histopathology: Liver-Hypertrophy, hepatocyte, central”, the NOEL was found to be 300 mg/kg-day. With `Cc1cccc(C(C)(C)C)c1O` [2-tert-Butyl-6-methylphenol], the NOEL (subchronic, gavage, M, Sprague-Dawley, Hematology: Ret increase, PT increase, APTT increase + Blood Chemistry: GOT increase, GPT increasegamma-GTP increase, Cho increase + …) stood at 8 mg/kg-day. Consider `CC1(C)Oc2ccc(C#N)cc2[C@@H](N2CCCC2=O)[C@@H]1O` [Levcromakalim], for which, under “chronic, duration: 91 days, diet, M/F, CD, Body Weight Changes: increase.3 + Food Consumption: increase.3 + Water Consumption: increase + Urinalysis: Volume increase Osmolality …”, the NOAEL was 0.03 mg/kg-day. In the case of `CC(CN1CCOCC1)OCCN1CCOCC1` (centres undefined) [Morpholine, 4-[2-[1-methyl-2-(4-morpholinyl)ethoxy]ethyl]-], the NOEL (short-term, duration: 28 days, gavage, M/F, Clinical Observation: Salivation Ptosis Reddish pinna Swelling of pinna + Body Weight Changes: Body weight gain decrease + Food Consumption…) is under 8 mg/kg-day. With `CCCC[N+](CCCC)(CCCC)CCCC.[Br-]` [Tetrabutylammonium bromide], the NOEL (subchronic, gavage, M/F, Sprague-Dawley, Deaths + Clinical Observation: Reddish urine + Body Weight Changes: Gain decrease + Food Consumption: increase + Urinalysis: Light brown …) worked out at 60 mg/kg-day. With `Nc1ccc(O)c(C(=O)O)c1` [5-Aminosalicylic acid], the no observed adverse effect level (NOAEL) came out at 100 mg/kg-day (chronic, duration: 91 days, gavage, F, Sprague-Dawley, Deaths + Urinalysis: Volume increase, Specific gravity decrease, Occult blood Na decrease, K decrease, Cl decrease + Hematology: RBC …) and 100 mg/kg-day (chronic, duration: 91 days, gavage, M, Sprague-Dawley, Deaths + Urinalysis: Volume increase, Specific gravity decrease, Occult blood Na decrease, K decrease, Cl decrease + Hematology: RBC …). On to `Cc1cc(Cl)ccc1Cl` [Benzene, 1,4-dichloro-2-methyl-], for which the NOEL (subchronic, gavage, M, Sprague-Dawley, Clinical Observation: White turbid urine Salivation + Absolute Organ Weight: Kidney increase + Relative Organ Weight: Kidney increase, R) stood at 30 mg/kg-day. Consider `CC1(C)CC(=O)CC(C)(C)N1[O]` [(2,2,6,6-Tetramethyl-4-oxopiperidin-1-yl)oxidanyl], for which, under “short-term, duration: 28 days, gavage, M/F, Clinical Observation: Salivation + Hematology: Trend of Anemia + Absolute Organ Weight: Spleen increase, Liver increase + Histopathology: …”, the NOEL came out at 40 mg/kg-day. `O=C(O)C1C(C(=O)O)C2(Cl)C(Cl)=C(Cl)C1(Cl)C2(Cl)Cl` (centres undefined) [Chlorendic acid]: under “subchronic, duration: 13 weeks, diet, M/F, Fischer 344, Body Weight Changes: decrease + Histopathology: Liver-Cytomegaly Liver/bile duct -Hyperplasia Liver-Mitotic alteration”, the NOEL is under 59.5 mg/kg-day.

For the compound `CN(C)CCCCl.Cl` [Dimethylaminopropyl chloride hydrochloride], the NOEL (subchronic, drinking water, M/F, Fischer 344, Deaths + Body Weight Changes: decrease + Blood Chemistry: TP decrease Alb decrease Bile acid increase + Histopathology: Nose-Goblet cell, …) was under 6.25 mg/kg-day.

Take `Cl.Cl.Nc1ccc(O)c(N)c1` [2,4-Diaminophenol dihydrochloride]: under setting [4], the no-observed-adverse-effect level (NOAEL) turned out to be 50 mg/kg-day. Besides, the NOEL runs as follows: under setting [4], under 50 mg/kg-day; (subchronic, duration: 13 weeks, gavage, M/F, Fischer 344, Deaths + Body Weight Changes: decrease>50 + Absolute Organ Weight: Liver increase, Thymus decrease + Relative Organ Weight: Right kidney …) under 12 mg/kg-day. Consider `CC=CC(=O)N(CC)c1ccccc1C` [Crotamiton], for which the NOEL amounted to 60 mg/kg-day (short-term, duration: 28 days, gavage, F, Sprague-Dawley, Clinical Observation: Salivation + Body Weight Changes: Weight gain decrease, increase + Food Consumption: increase + Urinalysis: Occult …) and 12 mg/kg-day (short-term, duration: 28 days, gavage, M, Sprague-Dawley, Clinical Observation: Salivation + Body Weight Changes: Weight gain decrease, increase + Food Consumption: increase + Urinalysis: Occult …). For `CC(O)CCl` (centres undefined) [1-Chloro-2-propanol], the NOEL (chronic, duration: 14 weeks, water, M/F, Fischer 344, Body Weight Changes: decrease + Water Consumption: decrease + Urinalysis: Urine volume decrease, Specific gravity increase, Total protein …) is under 7.36 mg/kg-day.

For `CCCCCCCCOC(=O)CCc1cc(-n2nc3ccccc3n2)c(O)c(C(C)(C)C)c1`, the NOEL (short-term, duration: 28 days, gavage, M/F, Body Weight Changes: Body weight gain decrease + Hematology: PT increase + Blood Chemistry: GOT increase, GPT increase, T-CHO increase, TG …) was 2 mg/kg-day. As to `CC(=O)Nc1cc(Nc2nc(Nc3ccc(N=Nc4cccc(S(=O)(=O)[O-])c4)c(NC(C)=O)c3)nc(N3CCOCC3)n2)ccc1N=Nc1cccc(S(=O)(=O)[O-])c1.[Na+].[Na+]`, where the note is “short-term, duration: 28 days, gavage, M/F, Urinalysis: Bil increase + Blood Chemistry: T-Bil increase, UA increase”, the NOEL amounted to 200 mg/kg-day. Consider `CCC[CH2][Sn]([Cl])([Cl])[Cl]` [Butyltin trichloride], for which the NOAEL (subchronic, duration: 13 weeks, diet, M/F, Wistar, Urinalysis: pH increase + Hematology: WBC increase, Lymph increase + Blood Chemistry: ALP increase, ASAT increase, GGT increase, A/G …) stood at 144 mg/kg-day. For the compound `O=C1OC(=O)c2c(Cl)c(Cl)c(Cl)c(Cl)c21` [Tetrachlorophthalic anhydride], the NOEL (subchronic, gavage, M/F, Fischer 344, Deaths + Body Weight Changes: decrease + Blood Chemistry: gamma-GTP increase, Glu decrease + Absolute Organ Weight: Spleen decrease, Right …) is under 94 mg/kg-day. With `COCC(CCC(C)C)(COC)C(C)C` [3,3-Bis(methoxymethyl)-2,6-dimethylheptane], for the setting “short-term, duration: 28 days, gavage, M/F, Clinical Observation: Salivation + Blood Chemistry: BIL increase, CL decrease + Absolute Organ Weight: Liver increase + Relative Organ …”, the NOEL turned out to be 8 mg/kg-day. As for `O=P([O-])(O)CN(CCN(CCN(CP(=O)(O)O)CP(=O)(O)O)CP(=O)(O)O)CP(=O)(O)O.[Na+]`, the NOAEL (subchronic, duration: 90 days, diet, M/F, Wistar, Hematology: RBC increase, MCV decrease, MCH decrease, HGB decrease, MCHC decrease + Absolute Organ Weight: Liver decrease) is 96 mg/kg-day. For the compound `CC(C)(c1cc(Br)c(OCCO)c(Br)c1)c1cc(Br)c(OCCO)c(Br)c1` [Tetrabromobisphenol A bis(2-hydroxyethyl) ether], the NOEL (subchronic, gavage, M, Sprague-Dawley, Clinical Observation: Soft stool R + Hematology: Plt increase + Blood Chemistry: BUN increase + Necropsy: Cecum-Distention) turned out to be 40 mg/kg-day. In the case of `CCOCCOCCOC` [Ethane, 1-ethoxy-2-(2-methoxyethoxy)-], the NOAEL (subchronic, duration: 42 days, gavage, M, CD(SD), Clinical Observation: Decrease in locomotor activity Salivation (transient) + Food Consumption: decrease + Urinalysis: K decrease, Cl …) was 62.5 mg/kg-day. Take `Nc1cc(S(=O)(=O)[O-])cc2cc(S(=O)(=O)[O-])c(N=Nc3ccc(-c4ccc(N=Nc5c(S(=O)(=O)[O-])cc6cc(S(=O)(=O)[O-])cc(N)c6c5[O-])c([O-])c4)cc3[O-])c([O-])c12.[Cu+2].[Cu+2].[Na+].[Na+].[Na+].[Na+]` [C.I. Direct Blue 218]: the NOEL by setting is: (subchronic, duration: 13 weeks, diet, F, Fischer 344, Body Weight Changes: decrease + Food Consumption: decrease + Hematology: Hct decrease, Hgb decrease + Blood Chemistry: ALT increase, , SDH …) 200 mg/kg-day; (subchronic, duration: 13 weeks, diet, M/F, Fischer 344, Body Weight Changes: decrease + Food Consumption: decrease + Hematology: Hct decrease, Hgb decrease + Blood Chemistry: ALT increase, , SDH …) under 288 mg/kg-day. For the compound `CO[Si](C)(OC)OC` [Trimethoxymethylsilane], the NOAEL (short-term, duration: 28 days, gavage, M, Sprague-Dawley, Clinical Observation: Inactivity Salivation + Body Weight Changes: Body weight gain decrease + Food Consumption: decrease + Hematology: PT …) amounted to 50 mg/kg-day.

Consider `C[N+](C)(C)CC(=O)[O-]` [Betaine], for which, for the setting “subchronic, diet, M/F, Sprague-Dawley, Food Consumption: decrease + Urinalysis: Urine volume increase,pH decrease + Hematology: Plt increase, Fib increase + Blood Chemistry: Alp …”, the NOEL was under 1%.

In the case of `Cl.Cl.Nc1ccc(Cc2ccc(N)cc2)cc1` [4,4'-Methylenedianiline dihydrochloride], the NOEL (subchronic, duration: 13 weeks, water, M/F, Fischer 344, Body Weight Changes: decrease + Histopathology: Liver/bile duct- Hyperplasia Thyroid-Adenomatous goiter Thyroid-Follicullar-cell hyperplasia…) is 30.4 mg/kg-day.

One may read the NOAEL as the highest tested level that showed no adverse finding.
